From patent US20070213339A1 (Bayer Pharmaceuticals Corporation, priority 2004, published 2007)

Tested on: Colo205 human colon carcinoma cell line
Test: In vitro tumor cell proliferation assay (MTS, CellTiter 96 Aqueous One Solution)
Assay type: cell-based
Conditions: COLO 205, Colo205 cells, 72 hours compound exposure, MTS absorbance at 490 nm, read-out: IC50 (concentration of test compound required to inhibit proliferation of 50% of the cells)
Outline: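 Colo205 cells seeded at 2000 cells/well in RPMI-1640 with 10% serum, exposed to compound for 72 h at 37 °C, 5% CO2, in a 5-point dose-response up to 10-20 μM. Viability read by MTS absorbance at 490 nm; IC50 from background-corrected percent inhibition by linear regression.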

SMILES	IC50 [nM]
CC(C)N(Cc1ccc(-n2cc(C(=O)O)c(=O)c3cc(F)c(N4CCN(c5ccccn5)CC4)c(Cl)c32)cc1)C1CCCCC1 [Example 174, 8-chloro-1-{4-[(2-cyclohexyl-isopropyl-amino)-methyl]-phenyl}-6-fluoro-4-oxo-7-(4-pyridin-2-yl-piperazine-1-yl)-1,4-dihydro-quinoline-3-carboxylic acid]	< 500
O=C(O)c1cn(-c2ccc(CN3CCCC3)cc2)c2c(OC(F)(F)Cl)c(N3CCN(c4ccccc4)CC3)c(F)cc2c1=O [Example 152, 8-[chloro(difluoro)methoxy]-6-fluoro-4-oxo-7-(4-phenylpiperazin-1-yl)-1-[4-(pyrrolidin-1-ylmethyl)phenyl]-1,4-dihydroquinoline-3-carboxylic acid]	< 500
CCN(CC)Cc1ccc(-n2cc(C(=O)O)c(=O)c3cc(F)c(N4CCN(c5ccccn5)CC4)c(OC(F)(F)F)c32)cc1 [Example 132, 1-{4-[(diethylamino)methyl]phenyl}-6-fluoro-4-oxo-7-(4-pyridin-2-ylpiperazin-1-yl)-8-(trifluoromethoxy)-1,4-dihydroquinoline-3-carboxylic acid]	< 500
O=C(O)c1cn(-c2cccc(CN3CCCCC3)c2)c2c(Cl)c(N3CCN(c4ccc(F)cc4)CC3)c(F)cc2c1=O [Example 67, 8-chloro-6-fluoro-7-[4-(4-fluorophenyl)-piperazin-1-yl]-4-oxo-1-[3-(piperidin-1-ylmethyl)phenyl]-1,4-dihydroquinoline-3-carboxylic acid]	2000 to 20000
O=C(O)c1cn(-c2ccc(CN3CCCC3)cc2)c2c(Cl)c(N3CCN(c4ccc(F)cc4)CC3)c(F)cc2c1=O [Example 2, 8-chloro-6-fluoro-7-[4-(4-fluorophenyl)-piperazin-1-yl]-4-oxo-1-[4-(pyrrolidin-1-ylmethyl)phenyl]-1,4-dihydroquinoline-3-carboxylic acid]	< 500
Cc1cccnc1N1CCN(c2c(F)cc3c(=O)c(C(=O)O)cn(-c4ccc(CN(C)C)cc4)c3c2OC(F)(F)F)CC1 [Example 129, 1-{4-[(dimethylamino)methyl]phenyl}-6-fluoro-7-[4-(3-methylpyridin-2-yl)piperazin-1-yl]-4-oxo-8-(trifluoromethoxy)-1,4-dihydroquinoline-3-carboxylic acid]	500 to 2000
CN(C)Cc1ccc(-n2cc(C(=O)O)c(=O)c3cc(F)c(N4CCN(c5ccccn5)CC4)c(OC(F)(F)F)c32)cc1 [Example 126, 1-{4-[(dimethylamino)methyl]phenyl}-6-fluoro-4-oxo-7-(4-pyridin-2-ylpiperazin-1-yl)-8-(trifluoromethoxy)-1,4-dihydroquinoline-3-carboxylic acid]	< 500
COc1c(N2CCN(c3ccc(C#N)cc3)CC2)c(F)cc2c(=O)c(C(=O)O)cn(-c3ccc(CN4CCCC4)cc3)c12 [Example 77, 7-[4-(4-cyanophenyl)piperazin-1-yl]-6-fluoro-8-methoxy-4-oxo-1-[4-(pyrrolidin-1-ylmethyl)phenyl]-1,4-dihydroquinoline-3-carboxylic acid]	< 500
CCN(CC)Cc1ccc(-n2cc(C(=O)O)c(=O)c3cc(F)c(N4CCN(c5ccccc5F)CC4)c(OC(F)(F)F)c32)cc1 [Example 135, 1-{4-[(diethylamino)methyl]phenyl}-6-fluoro-7-[4-(2-fluorophenyl)piperazin-1-yl]-4-oxo-8-(trifluoromethoxy)-1,4-dihydroquinoline-3-carboxylic acid]	< 500
COc1c(N2CCN(c3ncccc3C#N)CC2)c(F)cc2c(=O)c(C(=O)O)cn(-c3ccc(CN4CCCC4)cc3)c12 [Example 79, 7-[4-(3-cyanopyridin-2-yl)piperazin-1-yl]-6-fluoro-8-methoxy-4-oxo-1-[4-(pyrrolidin-1-ylmethyl)phenyl]-1,4-dihydroquinoline-3-carboxylic acid]	< 500
O=C(O)c1cn(-c2ccc(CN3CCCC3)cc2)c2c(OC(F)(F)Cl)c(N3CCN(c4ccccn4)CC3)c(F)cc2c1=O [Example 146, 8-[chloro(difluoro)methoxy]-6-fluoro-4-oxo-7-(4-pyridin-2-ylpiperazin-1-yl)-1-[4-(pyrrolidin-1-ylmethyl)phenyl]-1,4-dihydroquinoline-3-carboxylic acid]	< 500
O=C(O)c1cn(-c2cccc(CN3CCCCC3)c2)c2c(OC(F)(F)F)c(N3CCN(c4ccccn4)CC3)c(F)cc2c1=O [Example 140, 6-fluoro-4-oxo-1-[3-(piperidin-1-yl-methyl)phenyl]-7-(4-pyridin-2-ylpiperazin-1-yl)-8-(trifluoromethoxy)-1,4-dihydroquinoline-3-carboxylic acid]	500 to 2000
COc1c(N2CCN(c3ccc(Cl)c(Cl)c3)CC2)c(F)cc2c(=O)c(C(=O)O)cn(-c3ccc(CN4CCCC4)cc3)c12 [Example 86, 7-[4-(3,4-dichlorophenyl)piperazin-1-yl]-6-fluoro-8-methoxy-4-oxo-1-[4-(pyrrolidin-1-ylmethyl)phenyl]-1,4-dihydroquinoline-3-carboxylic acid]	500 to 2000
O=C(O)c1cn(-c2cccc(CN3CCCCC3)c2)c2c(OC(F)(F)F)c(N3CCN(c4ccc(F)cc4)CC3)c(F)cc2c1=O [Example 141, 6-fluoro-7-[4-(4-fluorophenyl)piperazin-1-yl]-4-oxo-1-[3-(piperidin-1-ylmethyl)phenyl]-8-(trifluoromethoxy)-1,4-dihydroquinoline-3-carboxylic acid]	500 to 2000
COc1c(N2CCN(c3ccccn3)CC2)c(F)cc2c(=O)c(C(=O)O)cn(-c3ccc(CN4CCCCC4)cc3)c12 [Example 194, 6-fluoro-8-methoxy-4-oxo-1-(4-piperidin-1-ylmethyl-phenyl)-7-(4-pyridin-2-yl-piperazine-1-yl]-1,4-dihydroquinoline-3-carboxylic acid]	< 500
CCN(CC)Cc1ccc(-n2cc(C(=O)O)c(=O)c3cc(F)c(N4CCN(c5ccc(Cl)cc5)CC4)c(OC(F)(F)Cl)c32)cc1 [Example 164, 8-[chloro(difluoro)methoxy]-7-[4-(4-chlorophenyl)piperazin-1-yl]-1-{4-[(diethylamino)methyl]phenyl}-6-fluoro-4-oxo-1,4-dihydroquinoline-3-carboxylic acid]	< 500
COCCN(C)Cc1ccc(-n2cc(C(=O)O)c(=O)c3cc(F)c(N4CCN(c5ccccn5)CC4)c(Cl)c32)cc1 [Example 55]	500 to 2000
COc1ccccc1N1CCN(c2c(F)cc3c(=O)c(C(=O)O)cn(-c4ccc(CN(C)C)cc4)c3c2OC)CC1 [Example 99, 1-{4-[(dimethylamino)methyl]phenyl}-6-fluoro-8-methoxy-7-[4-(2-methoxyphenyl)piperazin-1-yl]-4-oxo-1,4-dihydroquinoline-3-carboxylic acid]	500 to 2000
COc1c(N2CCN(c3ccc(C(C)=O)cc3)CC2)c(F)cc2c(=O)c(C(=O)O)cn(-c3ccc(CN(C)C)cc3)c12 [Example 103, 7-[4-(4-acetylphenyl)piperazin-1-yl]-1-{4-[(dimethylamino)methyl]phenyl}-6-fluoro-8-methoxy-4-oxo-1,4-dihydroquinoline-3-carboxylic acid]	500 to 2000
O=C(O)c1cn(-c2ccc(CN3CC[C@H](O)C3)cc2)c2c(Cl)c(N3CCN(c4ncccn4)CC3)c(F)cc2c1=O [Example 27, 8-chloro-6-fluoro-1-(4-{[(3S)-3-hydroxy-pyrrolidin-1-yl]methyl}phenyl)-4-oxo-7-(4-pyrimidin-2-ylpiperazin-1-yl)-1,4-dihydroquinoline-3-carboxylic acid]	< 500
O=C(O)c1cn(-c2cccc(CN3CCCCC3)c2)c2c(OC(F)(F)F)c(N3CCN(c4cccc(Cl)c4)CC3)c(F)cc2c1=O [Example 145, 7-[4-(3-chlorophenyl)piperazin-1-yl]-6-fluoro-4-oxo-1-[3-(piperidin-1-ylmethyl)phenyl]-8-(trifluoromethoxy)-1,4-dihydroquinoline-3-carboxylic acid]	500 to 2000
N#Cc1ccccc1N1CCN(c2c(F)cc3c(=O)c(C(=O)O)cn(-c4ccc(CN5CCCC5)c(F)c4)c3c2Cl)CC1 [Example 185, 8-chloro-7-[4-(2-cyanophenyl)-piperazine-1-yl]-6-fluoro-1-(3-fluoro-4-pyrrolidin-1-ylmethyl-phenyl)-4-oxo-1,4-dihydroquinoline-3-carboxylic acid]	< 500
CCN(C)Cc1ccc(-n2cc(C(=O)O)c(=O)c3cc(F)c(N4CCN(c5ccc(Cl)cc5)CC4)c(OC(F)(F)Cl)c32)cc1 [Example 168, 8-[chloro(difluoro)methoxy]-7-[4-(4-chlorophenyl)piperazin-1-yl]-1-(4-{[ethyl(methyl)amino]methyl}phenyl)-6-fluoro-4-oxo-1,4-dihydroquinoline-3-carboxylic acid]	< 500
COc1cc(CN2CCCCC2)ccc1-n1cc(C(=O)O)c(=O)c2cc(F)c(N3CCN(c4ccc(F)cc4)CC3)c(Cl)c21 [Example 177, 8-chloro-6-fluoro-7-[4-(4-fluorophenyl)-piperazine-1-yl]-1-(2-methoxy-4-piperidine-1-ylmethyl-phenyl)-4-oxo-1,4-dihydroquinoline-3-carboxylic acid]	< 500
N#Cc1ccc(N2CCN(c3c(F)cc4c(=O)c(C(=O)O)cn(-c5ccc(CN6CCCC6)c(F)c5)c4c3Cl)CC2)cc1 [Example 188, 8-chloro-7-[4-(4-cyanophenyl)-piperazine-1-yl]-6-fluoro-1-(3-fluoro-4-pyrrolidin-1-ylmethyl-phenyl)-4-oxo-1,4-dihydroquinoline-3-carboxylic acid]	< 500
O=C(O)c1cn(-c2ccc(CNC3CCCCC3)cc2)c2c(Cl)c(N3CCN(c4ccccn4)CC3)c(F)cc2c1=O [Example 171, 8-chloro-1-(4-cyclohexylaminomethyl-phenyl)-6-fluoro-4-oxo-7-(4-pyridin-2-yl-piperazin-1-yl)-1,4-dihydroquinoline-3-carboxylic acid]	< 500
